Experimental findings from ChEMBL document CHEMBL2331257, “(M)- and (P)-bicelaphanol A, dimeric trinorditerpenes with promising neuroprotective activity from Celastrus orbiculatus” (2013) are described below.

Molecules are shown by their SMILES.

What all share (format): functional
The subject of experiment [1] is PC-12. Description: Neuroprotective activity against H2O2-induced toxicity in rat PC12 cells assessed as cell viability at 10 uM incubated for 2 hrs prior to H2O2-challenge measured after 24 hrs by MTT assay relative to control. The settings on record: for viability at 10 µM: Rattus norvegicus, PC-12, read-out: Activity. Background: Tetrazolium dyes change colour on reduction, which living cells bring about.

In experiment [2] the test system is PC-12. In words: Neuroprotective activity against H2O2-induced toxicity in rat PC12 cells assessed as cell viability at 1 uM incubated for 2 hrs prior to H2O2-challenge measured after 24 hrs by MTT assay relative to control. The settings on record: for viability at 1 µM: Rattus norvegicus, PC-12, read-out: Activity.
Experiment [3] relates to PC-12. Description: Neuroprotective activity against H2O2-induced toxicity in rat PC12 cells assessed as cell viability at 100 uM incubated for 2 hrs prior to H2O2-challenge measured after 24 hrs by MTT assay relative to control. The settings on record: read-out: Activity.

Regarding `CC1(C)CCC[C@@]2(C)C1=C(O)C(=O)c1c2cc(O)c(O)c1C1=C2C=C(O)C(=O)C=C2[C@@]2(C)CCCC(C)(C)[C@@H]2C1=O` (stereo in doubt; 1), the Activity worked out at 102.7% in the experiment with PC-12 [1] and 81.3% with PC-12 [2].
Consider `CC1(C)CCC[C@@]2(C)C1=C(O)C(=O)c1c2cc(O)c(O)c1C1=C2C=C(O)C(=O)C=C2[C@@]2(C)CCCC(C)(C)[C@@H]2C1=O` (stereo in doubt; 2), for which the viability at 10 µM in the experiment on PC-12 [1] came to 91.6%. Besides, the viability at 1 µM in the experiment with PC-12 [2] is 78.3%.
In the case of `CC(=O)N[C@@H](CS)C(=O)O` [ACETYLCYSTEINE], in the experiment with PC-12 [3], the viability at 100 µM was determined as 76.1%.
As for `CC1(C)CCC[C@@]2(C)C1=C(O)C(=O)c1cc(O)c(O)cc12` [CELAPHANOL A], the viability at 10 µM with PC-12 [1] was 76.9%. Moreover, the viability at 1 µM with PC-12 [2] turned out to be 66.4%.
